{"source": "patent US7268129B2", "about": "“Fluorinated benzothiadiazine compounds” (Les Laboratoires Servier, priority 2005, dated 2007)", "key": {"AMPA receptors": {"system": "AMPA receptors", "assay": "Effect of compounds on the ionic current induced by AMPA in Xenopus oocytes", "type": "cell-based", "conditions": "Xenopus oocytes injected with rat cerebral cortex mRNA, (S)-AMPA 10 μM, voltage-clamp", "method": "mRNA's are prepared from cerebral cortex of male Wistar rats by the caesium chloride/guanidium thiocyanate method. The poly (A^+) mRNA's are isolated using the PolyATtract mRNA Isolation systems kit (Promega, USA) and injected at a level of 50 ng per oocyte. The oocytes are incubated for 3 to 4 days at 18° C. to permit expression of the receptors and are then stored at 4° C. until used.\nElectrophysiological recordings are carried out continuously at ambient temperature in a Plexiglass® chamber using OR2 medium (J. Exp. Zool., 1973, 184, 321-334) by the “voltage-clamp” method using two electrodes, with a third electrode placed in the bath serving as reference.\nAll the compounds and the AMPA are applied via the perfusion medium. (S)-AMPA is used in a concentration of 10 μM. The ionic current induced by the application of AMPA in the absence and presence of compounds is measured. For each compound studied, the concentration that doubles (EC2×) or quintuples (EC5×) the intensity of the current induced by AMPA alone (5 to 50 nA) is determined."}, "[1]": {"system": "Wistar rats aged 3 months", "assay": "Object recognition in adult Wistar rats aged 3 months", "type": "in vivo, rat", "conditions": "male Wistar rats aged 3 months; 0.03 to 1 mg/kg by the oral route 60 minutes before each session; 24 hours between sessions", "from_the_text": "The object recognition test in the Wistar rat was initially developed by ENNACEUR and DECACOUR (Behav. Brain Res., 1988, 31, 47-59). The test is based on the spontaneous exploratory activity of the animal and has the characteristics of episodic memory in humans. This memory test is sensitive to ageing (SCALL et al., Eur. J. Pharmacol., 1997, 325, 173-180) and to cholinergic dysfunctions (BARTOLINI et al., Pharm. Biochem. Behav. 1996, 53(2), 277-283) and is based on the differences in the exploration of 2 objects of fairly similar shape—one familiar, the other new. Prior to the test, the animals (male Wistar rats aged 3 months: CERJ, France) are habituated to the environment (an enclosure without an object). In the course of a first session, the rats are placed (3 minutes) in the enclosure, in which there are 2 identical objects. The duration of exploration is measured for each object. In the course of the second session (3 minutes), 24 hours later, 1 of the 2 objects is replaced by a new object. The duration of exploration is measured for each object. The assessment criterion is the difference, Delta, expressed in seconds, between the exploration times for the new object and for the familiar object in the course of the second session."}, "[2]": {"system": "Wistar rats aged 17 months", "assay": "Object recognition in Wistar rats aged 17 months", "type": "in vivo, rat", "conditions": "male Wistar rats aged 17 months; 0.1 mg/kg by the oral route; 1 hour between sessions", "method": "In old rats there is a deficiency in memory retention in the object recognition test. Prior to the test, the animals (male Wistar rats aged 17 months: CERJ, France) are habituated to the environment (an enclosure without an object). In the course of a first session, the rats are placed (3 minutes) in the enclosure, in which there are 2 identical objects. The duration of exploration is measured for each object. In the course of the second session (3 minutes), 1 hour later, 1 of the 2 objects is replaced by a new object. The duration of exploration is measured for each object. The assessment criterion is the difference, Delta, expressed in seconds, between the exploration times for the new object and for the familiar object in the course of the second session."}}, "note": "Where two headings read alike, the source gives them in different places.", "data": [{"molecule": "O=S1(=O)NCN(CCF)c2ccc(Cl)cc21", "note": "[Example 1, 7-Chloro-4-(2-fluoroethyl)-3,4-dihydro-2H-1,2,4-benzothiadiazine 1,1-dioxide]", "values": [{"measurement": "concentration multiplying AMPA current (EC2× / EC5×)", "setting": "AMPA receptors; read-out: EC2× (concentration that doubles the intensity of the current induced by AMPA alone)", "result": "6.7 ± 1.4", "unit": "µM"}, {"measurement": "concentration multiplying AMPA current (EC2× / EC5×)", "setting": "AMPA receptors; read-out: EC5× (concentration that quintuples the intensity of the current induced by AMPA alone)", "result": "14.5 ± 0.6", "unit": "µM"}, {"measurement": "memory retention (object recognition, Delta of exploration times)", "setting": "[1]", "result": "significantly improves memory retention"}, {"measurement": "age-related deficiency in memory retention (object recognition)", "setting": "[2]", "result": "significantly opposes the age-related deficiency in memory retention"}]}]}
